Assay results from patent publication US9200008B2 (ASKA PHARMACEUTICAL CO., LTD., priority 2010, dated 2015).

These molecules were tested on Human prostate cancer cell lines (PC-3 cells) (assay: Measurement of cell death-inducing activity (Test Example 1)). Conditions: PC-3, 48 h, 48 hours after addition, tested at 10, 1, 0.1, 0.025 and 0.00625 μmol/L, qualitative evaluation of 10 fields, read-out: Concentration showing the cell death-inducing activity (cell death-inducing rate not less than 40%).
Type: cell-based
Method in brief: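 PC-3 cells seeded at 1×10^5 cells/well and grown 48 h at 37 °C, 5% CO2, then exposed to compound at 10, 1, 0.1, 0.025 and 0.00625 μmol/L (DMSO control) for a further 48 h. Activity was called where cell death-inducing rate was not less than 40%.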

SMILES	minimal effective concentration [µM]
COc1cc(Cl)ccc1-c1nc(C)c(NC(=O)OCc2ccc3c(c2)ncn3C)s1 [Example 9-39]	0.00625
CCCn1cnc2cc(COC(=O)Nc3sc(-c4ccc(C)cc4C)nc3C)ccc21 [Example 9-69]	1
COc1ccc(/C=N/NC(=O)c2sc(-c3ccccc3OC)nc2C)c(O)c1 [Example 23-86]	10
COc1ccc(/C=N/NC(=O)c2cc(-c3ccc(Cl)cc3OC)cn2C)cc1O [Example 23-170, 4-(4-Chloro-2-methoxyphenyl)-1-methyl-1H-pyrrole-2-carboxylic acid (3-hydroxy-4-methoxybenzylidene)hydrazide]	10
CCn1nc(-c2ccccc2OC)cc1NC(=O)OCc1ccc2c(c1)nc1n2CCCC1 [Example 9-264]	1
CCc1nc(-c2ccc(F)cc2C)sc1COC(=O)Nc1ccc2c(c1)nc1n2CCSC1 [Example 43-4]	1
CCc1nc(-c2ccc(C)cc2C)sc1NC(=O)OCc1ccc2nn(CC)cc2c1 [Example 9-371]	1
CCn1cnc2cc(COC(=O)Nc3sc(-c4ncccc4C)nc3C)ccc21 [Example 9-196]	10
CCn1cc2cc(COC(=O)Nc3sc(-c4ccc(F)cc4OC)nc3C)ccc2n1 [Example 9-153]	0.025
Cc1ccc(-c2nc(C)c(NC(=O)OCc3ccc4c(c3)nc3n4CCN(C)C3)s2)c(C)c1 [Example 38-3, [2-(2,4-Dimethylphenyl)-4-methylthiazol-5-yl]carbamic acid 2-methyl-1,2,3,4-tetrahydrobenzo[4,5]imidazo[1,2-a]pyrazin-8-ylmethyl ester]	10
Cn1cnc2cc(NC(=O)OCc3cc(-c4ccc(Cl)cc4Cl)ns3)ccc21 [Example 47-1]	0.1
Cc1cc(Cl)ccc1-c1nc(C)c(NC(=O)OCc2ccc3c(c2)nc2n3C(C)CCC2)s1 (stereo not shown) [Example 9-119]	10
COc1ccc(/C=N/NC(=O)c2sc(-c3ccc(Cl)cc3OC)nc2C)cc1C [Example 23-82]	0.1
CCn1cc2cc(COC(=O)Nc3sc(-c4ccc(C)cc4C)nc3C)ccc2n1 [Example 9-157]	0.1
CCn1cnc2cc(NC(=O)OCc3cc(-c4ccc(F)cc4OC)nn3C)ccc21 [Example 13-82]	0.025
COc1cc(F)ccc1-c1nc(C)c(NC(=O)OCc2ccc3c(cnn3C)c2)s1 [Example 9-127]	0.1
COc1ccc(CN(C)NC(=O)c2sc(-c3ccc(Cl)cc3OC)nc2C)cc1OC [Example 16-16]	1
Cc1cc(Cl)ccc1-c1nc(C)c(COC(=O)Nc2ccc3c(c2)ncn3C)s1 [Example 13-10]	0.00625
COc1ccc(NC(=O)OCc2cc(-c3ccc(Cl)cc3OC)nn2C)cc1F [Example 13-71]	1
CCn1cnc2cc(COC(=O)Nc3c(C)c(-c4ccc(Cl)cc4OC)nn3C)ccc21 [Example 9-313]	10
CCc1ccccc1-c1nc(C)c(NC(=O)OCc2ccc3c(cnn3CC)c2)s1 [Example 9-133]	0.1
COc1ccc(-c2nc(-c3ccccc3C)sc2C(=O)N/N=C/c2cc(C)c(O)c(C)c2)cc1 [Example 23-162]	1
COc1ccc(-c2nc(C)c(C(=O)N/N=C/c3ccc(OC)c(O)c3)s2)cc1 [Example 23-103]	10

SMILES	minimal effective concentration [µM]
Cc1cc(Cl)ccc1-c1nc(C)c(NC(=O)OCc2ccc3c(ccn3C)c2)s1 [Example 9-31]	1
COc1ccc(/C=N/NC(=O)c2sc(-c3scnc3C)nc2C)cc1O [Example 23-137]	1
COc1cc(Cl)ccc1-c1nc(C)c(COC(=O)Nc2ccc3nn(C)cc3c2)s1 [Example 13-46]	10
COc1ccc(CN(C)NC(=O)c2sc(-c3ccccc3C)nc2C)cc1 [Example 16-3]	1
CCn1nc(-c2ccc(C)cc2C)cc1NC(=O)OCc1ccc2c(c1)ncn2CC [Example 9-236]	0.1
CCn1cc2ccc(COC(=O)Nc3cc(-c4ccc(Cl)cc4OC)nn3CC)cc2n1 [Example 9-302]	0.1
CCn1nc(-c2ccc(Cl)cc2OC)cc1NC(=O)OCc1ccc2c(c1)ncn2CC [Example 9-224]	0.00625
COc1ccc(-c2nc(C)c(C(=O)N/N=C/c3ccc(O)c4ccccc34)s2)cc1 [Example 23-113]	10
COc1cc(Cl)ccc1-c1cc(NC(=O)OCc2ccc3cnn(C)c3c2)n(C)n1 [Example 9-297]	10
CCn1cnc2cc(COC(=O)Nc3cc(-c4ccc(Cl)cc4OC)nn3C)ccc21 [Example 9-223]	0.00625
COc1cc(C)ccc1-c1cc(NC(=O)OCc2ccc3c(c2)nc2n3CCOC2)n(C)n1 [Example 9-249]	0.00625
CCn1nc(-c2ccc(Cl)cc2Cl)cc1NC(=O)OCc1ccc2c(cnn2C)c1 [Example 9-276]	1
Cc1cc(Cl)ccc1-c1nc(C)c(NC(=O)OCc2ccc3c(c2)nc2n3CCSC2)s1 [Example 40-3, [2-(4-Chloro-2-methylphenyl)-4-methylthiazol-5-yl]carbamic acid 3,4-dihydro-1H-2-thia-4a,9-diazafluoren-7-ylmethyl ester]	0.1
COc1cc(F)ccc1-c1cc(COC(=O)Nc2ccc3c(c2)nc2n3CCOC2)n(C)n1 [Example 13-97]	0.00625
COc1ccccc1-c1ncc(COC(=O)Nc2ccc3c(c2)ncn3C)s1 [Example 13-66]	10
COc1ccccc1-c1cc(NC(=O)OCc2ccc3c(c2)nc2n3CCOC2)n(C)n1 [Example 9-243]	0.1
Cc1ccc(-c2nc(C)c(NC(=O)OCc3ccc4c(c3)ncn4C)s2)c(C)c1 [Example 9-42]	0.00625
Cc1cc(/C=N/NC(=O)c2cc(-c3ccccn3)ns2)cc(C)c1O [Example 27-12]	1
Cc1nc(-c2ccc(F)cc2Cl)sc1COC(=O)Nc1ccc2c(c1)ncn2C [Example 13-11]	0.025
CCc1nc(-c2ccc(Cl)cc2OC)sc1NC(=O)OCc1ccc2c(c1)ncn2C [Example 9-181]	0.00625
CCn1ncc2cc(COC(=O)Nc3sc(-c4ccc(Cl)cc4OC)nc3C)ccc21 [Example 9-136]	0.00625
Cc1ccc(-c2nc(C)c(NC(=O)OCc3ccc4c(cnn4C)c3)s2)c(C)c1 [Example 9-130]	0.025
CCn1nnc2cc(COC(=O)Nc3sc(-c4ccc(F)cc4C)nc3C)ccc21 [Example 9-27]	0.025

SMILES	minimal effective concentration [µM]
COc1ccc(/C=N/NC(=O)c2sc(-c3ccccc3C(F)(F)F)nc2C)cc1O [Example 23-13]	1
COc1ccc(-c2cc(NC(=O)OCc3ccc4c(c3)ncn4C)n(C)n2)c(OC)c1 [Example 9-230]	0.025
COc1ccc(/C=N/NC(=O)c2sc(-c3ccc(Cl)cc3)nc2C(F)(F)F)cc1O [Example 23-18]	10
COc1cc(C)ccc1-c1nc(C)c(NC(=O)OCc2ccc3c(c2)nnn3C)s1 [Example 9-16]	0.00625
COc1ccccc1-c1nc(C)c(C(=O)N/N=C/c2cc(C)c(O)c(C)c2)s1 [Example 23-120]	0.1
Cc1nc(-c2ccc(F)cc2)sc1NC(=O)OCc1ccc2c(c1)ncn2C [Example 9-45]	1
COc1ccc(/C=N/NC(=O)c2sc(-c3ccccc3C)nc2C)cc1O [Example 23-12]	0.1
CCn1nc(-c2ccc(C)cc2OC)cc1COC(=O)Nc1ccc2c(c1)ncn2CC [Example 13-91]	0.1
CCn1nc(-c2ccc(F)cc2OC)cc1NC(=O)OCc1ccc2c(c1)nc1n2CCCC1 [Example 9-266]	1
CCn1nc(-c2ccc(Cl)cc2OC)cc1COC(=O)Nc1ccc2c(c1)ncn2C [Example 13-85]	0.00625
Cc1cc(/C=N/NC(=O)c2cc(-c3ccc(Cl)cc3)oc2C)cc(C)c1O [Example 23-167, 5-(4-Chlorophenyl)-2-methylfuran-3-carboxylic acid [1-(4-hydroxy-3,5-dimethylphenyl)methylidene]hydrazide]	1
Cc1ccc(-c2cc(NC(=O)OCc3ccc4c(c3)ncn4C)n(C)n2)c(C)c1 [Example 9-233]	0.00625
Cc1nc(-c2ccccc2)sc1NC(=O)OCc1ccc2c(c1)ncn2C [Example 9-32]	1
CCn1nc(-c2ccc(C)cc2C)cc1NC(=O)OCc1ccc2nn(C)cc2c1 [Example 9-296]	1
COc1cc(Cl)ccc1-c1cc(NC(=O)OCc2ccc3c(c2)ncn3C)sn1 [Example 45-2]	1
COc1ccccc1-c1cc(C(=O)N/N=C/c2ccc3c(c2)nc2n3CCOC2)sn1 [Example 49-4, 3-(2-Methoxyphenyl)isothiazole-5-carboxylic acid[1-(3,4-dihydro-1H-2-oxa-4a,9-diazafluoren-7-yl)methylidene]hydrazide]	10
CCCn1cnc2cc(COC(=O)Nc3sc(-c4ccc(C)cc4OC)nc3C)ccc21 [Example 9-68]	0.1
COc1cc(Cl)ccc1-c1nc(C)c(NC(=O)OCc2cccc(N(C)C)c2)s1 [Example 9-11]	10
COc1ccccc1-c1cc(COC(=O)Nc2ccc3c(c2)nc2n3CCCC2)n(C)n1 [Example 13-114]	0.1
Cc1ccc(-c2cc(COC(=O)Nc3ccc4c(c3)nc3n4CCC3)n(C)n2)c(C)c1 [Example 13-110]	0.00625
COc1ccccc1-c1nc(C)c(NC(=O)OCc2ccc3c(cnn3C)c2)s1 [Example 9-126]	0.1
